Data: patent publication US10751373B2, “PD-L1 expressing hematopoietic stem cells and uses” (The Children's Medical Center Corporation, priority 2015, dated 2020)
Read-outs that look alike come from different tables or passages of the source.

What was measured:
CD34^+ cells [1] = experiment: Ex vivo culture of human CD34+ cells with PGE2, PD-L1 expression by FACS; format: cell-based
Procedure: CD34^+ cells were isolated from patients (20 ml of blood) using magnetic beads and ˜1×10^6 cells were plated in a U-bottom 96-well plate with 200 μl of the indicated medium. STFIA medium was defined as serum-free medium supplemented with 10 μg/ml heparin, 10 ng/ml human SCF, 20 ng/ml human TPO, 10 ng/ml human FGF-1, 100 ng/ml IGFBP2, and 500 ng/ml Angptl3. PGE2 was added the culture at 0 h, 24 h, 72 h and 6 days. An aliquot of 2 μl of diluted PGE2 at a concentration of 10 μM was added to the 200 μl of each well in the 96-well plate. The approximate final concentration of PGE2 in each well is 0.1 μM. Therefore, the cells are exposed to ˜0.1 μM of PGE2. The periodic addition of PGE2 at 24 h, 72 h and 6 days serves to maintain the PGE2 in the culture media. Cells were cultured for 7 days at 37° C. in 5% CO2 and the normal level of O2.
Alternatively, cells are cultured in the same conditions for 48 h in the absence of PGE2, after which and PGE2 is added and then later at 24 h after the initial additional. PGE2 is added to the same approximate final concentration of PGE2 of 0.1 μM. We typically observed a ˜10-fold increase of CD34^+PD-L1^+ of cells after 8 days of culture when compared with a cell culture with the same medium cultured for the same time in the same conditions with cells obtained from the same subjects but without addition of PGE2.
Human – human HSCs were cultured using StemSpan supplemented with human stem cell growth factors as previously reported (22). Briefly, CD34^+ cells were plated at 5×10^5 cells/ml in supplemented StemSpan on a 96-well plate, at 200 μl/well for 7 days. HSCs were pulsed with PGE2 as described in murine experiments. PD-L1^+ HSCs were quantified by FACS analysis at different timepoints and at the end of the procedure.

KLS cells = experiment: In vitro culture of murine KLS cells with PGE2, PD-L1+ HSCs by FACS; format: cell-based; conditions: KLS of B6 and NOD mice; PGE2 (2 μl, 10 μM); after 8 days
Procedure: (§1) We evaluated the characteristics of CXCR4 antagonist-mobilized HSCs by FACS analysis. Lin^−c-Kit^+Sca-1^+ cells were sorted from islet-transplanted or naïve CXCR4 antagonist-treated mice after 7 and 14 days of treatment. […] To evaluate the immunoregulatory role of PD-L1 in murine HSCs, we investigated the effect of mobilized HSCs from WT and PD-L1 KO mice on the alloimmune response in vitro. A standard MLR assay was performed in which HSCs (from WT B6 or PD-L1 KO mice) were syngeneic to responder cells (CD4^+ cells from B6) but allogeneic to bone marrow-derived DCs (from BALB/c). […] The percentage of peripheral PD-L1^+ KLS in 10-week-old NOD and B6 mice was evaluated by FACS. […] We performed a pilot study to assess the feasibility of generation of PD-L1^+ HSCs in vitro by pharmacologic approach. KLS cells were isolated from splenocytes of B6 and NOD mice by magnetic beads and cultured with standard stem cell medium plus PGE2 (2 μl, 10 μM).

[2] = test system: Lin^−c-Kit^+Sca-1^+ cells
Procedure: as §1

CD34^+ cells [3] = test system: CD34^+ cells
From the text: To assess whether mobilization alters expression of PD-L1 on HSCs we studied the immune phenotype of HSCs before and after mobilization with anti-CXCR4 in 5 healthy subjects and 8 individuals with T1D.
Blood samples were obtained from new onset diabetic individuals (New-onset T1D), long-standing diabetic individuals (T1D) and healthy individuals (CTRL) in accordance with The San Raffaele Scientific Research Institute under an Institutional Review Board committee approval. Peripheral blood mononuclear cells (PBMC) fractions were isolated by Ficoll density gradient centrifugation for cell culturing experiments. Additional blood samples were obtained from T1D subjects and CTRL at baseline before treatment and 6 hours after treatment with CXCR4-antagonist (Mozobil; Sanofi) at the dose of 0.24 mg/kg body weight in accordance with the Institution Review Board Committee of Padova (2996P) and was performed in accordance with the Declaration of Helsinki (Clinical trial registered on clinicaltrials.gov (NCT02056210)). Patients with Type 1 Diabetes aged 18-65 years were recruited among those referred to the diabetes outpatient clinic of the University Hospital of Padova. Individuals without diabetes aged 18-65 years were recruited from those referred to the same outpatient clinic for screening of other metabolic diseases. All provided written informed consent. […] Women with childbearing potential could participate in the study if on oral contraception, and a negative pregnancy test was required before study entry. […] All medications for the treatment of diabetes and for other medical conditions were allowed during the study.
To assess PD-L1, PD-L2 and PD-1 expression on human HSCs, fresh blood collected from healthy individuals, T1D and new-onset T1D individuals was stained with PE-Cy5.5 anti-human CD34, PE anti-human PD-L1 or PD-L2 or PD-1 (BD Biosciences). […]

CD34+ cells = experiment: HSC mobilization with hrG-CSF (trial NCT01102699); format: in vivo, human; conditions: 5 μg/kg
[4] = after 7 and 14 days of treatment

With `CCCCC[C@H](O)/C=C/[C@H]1[C@H](O)CC(=O)[C@@H]1C/C=C\CCCC(=O)O` [PGE2, prostaglandin E2] the “increase in the percentage of PD-L1^+ HSCs” value (CD34^+ cells [1]; CD34+ cells of T1D individuals (n=10), after 7 days) was roughly 8 times fold, the “increased expression of PD-L1 as compared to baseline” value (CD34^+ cells [1]; PGE2 culture protocol) was “at least 5 fold” and the “increase of CD34^+PD-L1^+ of cells” value (CD34^+ cells [1]; PGE2 ~0.1 μM, after 8 days of culture vs same culture without PGE2) was roughly 10 fold. The “increase in the PD-L1^+ HSCs” value (KLS cells) was roughly 30 % fold.

With `c1cc(CN2CCCNCCNCCCNCC2)ccc1CN1CCCNCCNCCCNCC1` [CXCR4 antagonist, plerixafor] the “PD-L1^+ HSCs in bone marrow” value ([2]; B6 islet-transplanted mice, 6 h after initiation of treatment) was “did not increase”, the “CXCR4 expressed by extracted HSCs” value [2, 4] was 38.4±4.2% and the “PD-L1 expressed by mobilized HSCs” value [2, 4] was 58.0±7.1%. The “percentage of CD34^+ PD-L1^+ cells after mobilization” value (CD34^+ cells [3]; 5 controls and 8 T1D individuals) was “decrease”, the “PD-L1 expression on CD34^+ cells after mobilization” value (CD34^+ cells [3]; T1D individuals (n=8), before 1.5±0.8) was 4.7±1.5 and the “PD-L1 expression on CD34^+ cells after mobilization” value (CD34^+ cells [3]; healthy subjects (n=5), before 0.6±0.2) was 6.2±0.6.

B1: hrG-CSF: granulocyte colony stimulating factor (protein, UniProt P09919 31-207, looked up)
Granulocyte …: TPLGPASSLPQSFLLKCLEQVRKIQGDGAALQEKLVSECATYKLCHPEELVLLGHSLGIPWAPLSSCPSQALQLAGCLSQLHSGLFLYQGLLQALEGISPELGPTLDTLQLDVADFATTIWQQMEELGMAPALQPTQGAMPAFASAFQRRAGGVLVASHLQSFLEVSYRVLRHLAQP
In the case of B1, the “CD34+ cell mobilization” value (CD34+ cells; T1D individuals) is reported as “impaired mobilization” and the “CD34+ cell mobilization” value (CD34+ cells; healthy controls) is reported as “significantly increased”.
